Data on three molecules can be found in US20230218726A1, “TREATMENT OF VIRAL CONJUNCTIVITIS” (Okogen, Inc., priority 2020, published 2023).

Series [1] relates to epidemic keratoconjunctivitis (EKC). As to conditions: eye drops tested clinically; cited from earlier work.
Series [2] is described as follows: Chromatographic compatibility analyses (cation exchange, size exclusion, BAK method). The series is classed as physicochemical. As to conditions: no interference in cation exchange, size exclusion and BAK chromatography; PBS pH 7.4. The method, then:
A formulation was prepared having 0.03% w/v ranpirnase together with oxymetazoline or brimonidine. The formulations were analyzed by chromatography to verify whether the therapeutic agent interferes with ranpirnase. Several chromatography methods were employed, including cation exchange and size exclusion chromatography, as well as benzalkonium chloride (BAK) analysis.
For cation exchange chromatography, analysis was performed with the following solutions: diluent (PBS pH 7.4), oxymetazoline HCl (0.5 mg/mL), placebo, and ranpirnase. Oxymetazoline HCl (0.5 mg/mL) solution was prepared in diluent. Both ranpirnase and its placebo were removed from the refrigerator, warmed to room temperature, and vialed into HPLC vials.
For size exclusion chromatography, analysis was performed on the following solutions: diluent (PBS pH 7.4), oxymetazoline HCl (0.5 mg/mL), placebo, and ranpirnase. Oxymetazoline HCl (0.5 mg/mL) solution was prepared in diluent. Both ranpirnase and its placebo were removed from the refrigerator, warmed to room temperature, and vialed into HPLC vials.
The benzalkonium chloride (BAK) analysis was performed on the following solutions: diluent (PBS pH 7.4), oxymetazoline HCl (0.05 mg/mL), placebo, and ranpirnase. Oxymetazoline HCl (0.5 mg/mL) solution (10×) was diluted to 0.05 mg/mL in diluent. […]

A further series concerns NFκB. As to conditions: in vitro study; cited from earlier work.

With `Nc1ccn(C[C@@H](CO)OCP(=O)(O)O)c(=O)n1` [cidofovir], in series [1], the “clinical benefit in epidemic keratoconjunctivitis” value was “no definitive benefit was observed”. Consider `Cc1cc(C(C)(C)C)c(O)c(C)c1CC1=NCCN1` [oxymetazoline, 3-(4,5-dihydro-1H-imidazol-2-ylmethyl)-2,4-dimethyl-6-tert-butyl-phenol], for which the “compatibility of formulating with ranpirnase in an ophthalmic formulation” value in series [2] is listed as “compatibility”.

B1: ranpirnase: amphibian ribonuclease from Rana pipiens oocytes/early embryos, RNase A superfamily, about 12 kD (protein, UniProt P22069 1-104, looked up)
Protein P-30: QDWLTFQKKHITNTRDVDCDNIMSTNLFHCKDKNTFIYSRPEPVKAICKGIIASKNVLTTSEFYLSDCNVTSRPCKYKLKKSTNKFCVTCENQAPVHFVGVGSC
Regarding B1, the “translocation of NFκB into the nucleus” value in the series with NFκB is given as “inhibits translocation of NFκB into the nucleus”.
